Counter-ions that a name gives are not always drawn.
Assays:
[1] = test system: non-segmental facial vitiligo; test: Open-label clinical trial, topical treatment of non-segmental facial vitiligo; type: in vivo; details: 0.46% (w/w) topical solution twice daily; as early as 4 weeks after initiating treatment
Text: Subjects with a clinical diagnosis of new onset or actively progressing non-segmental facial vitiligo or worsening of existing facial lesions within the past 6 months were enrolled in an open-label clinical trial and treated with a 0.46% (w/w) topical solution formulation of 5-((2-((4-fluoro-3-methoxy-5-methylphenyl)amino)-5-methylpyrimidin-4-yl)amino)benzo[d]oxazol-2(3H)-one hydrochloride applied twice daily for 24 weeks by the protocol-prescribed method.
It is anticipated that the treatment will be judged to be safe and tolerable.

[2] = Plasma drug levels after oral gavage in the mouse vitiligo model; type: in vivo; details: oral gavage QD, post dose
[3] = test system: destruction of melanocytes; test: Harris mouse model of vitiligo (adoptive transfer of TCR transgenic T cells), in-life vitiligo scoring; type: in vivo; details: both doses (50 and 100 mg/kg), oral gavage QD, scored 5 weeks after initiation of dosing
Text: The primary driver of vitiligo is an autoimmune attack on melanocytes, the cells which give skin its color. The initiating event(s) for this autoimmune attack is unknown, however the key cell type driving the destruction of the melanocytes is the CD8+ cytolytic T cell (CTL). A major cytokine that drives the activation/function of these CTL is IFNy, whose receptor signals via JAK1 and JAK2. Drugs that block the function of JAK1 or JAK2 would be predicted to be efficacious in reversing the autoimmune destruction of melanocytes, and this has been confirmed with pilot studies using tofacitinib (an inhibitor of JAK3/JAK1/JAK2) and ruxolitinib (an inhibitor of JAK1/JAK2). The development of novel therapeutics for treatment of vitiligo would be facilitated by an animal model of disease that specifically recapitulates the key features of the disease (IFNγ CD8+ CTL driven destruction of melanocytes). Dr. John Harris of the University of Massachusetts Medical School has developed such a model. […] Attempted induction of disease is then accomplished using a proprietary method and is measured by the degree of melanocyte destruction. […] In FIG. 1, each symbol represents an individual animal, scored 5 weeks after initiation of dosing. Statistical significance was determined with the Student's T test.

[4] = test system: autoimmune destruction of melanocytes; details: pilot studies; cited from earlier work

SMILES | improvement of disease (pigmentation at lesion borders, repigmentation, Facial VASI index) [1] | time plasma drug levels were above the EC50 for blockade of IFNγ signaling ([2]; 50 mg/kg) [h] | time plasma drug levels were above the EC50 for blockade of IFNγ signaling ([2]; 100 mg/kg) [h] | efficacy in the model (vitiligo score, FIG. 1) [3] | efficacious in reversing the autoimmune destruction of melanocytes [4]
COc1cc(Nc2ncc(C)c(Nc3ccc4oc(=O)[nH]c4c3)n2)cc(C)c1F [5-((2-((4-fluoro-3-methoxy-5-methylphenyl)amino)-5-methylpyrimidin-4-yl)amino)benzo[d]oxazol-2(3H)-one hydrochloride] | early improvement in their disease | 6 | 20 | excellent efficacy | 
N#CC[C@H](C1CCCC1)n1cc(-c2ncnc3[nH]ccc23)cn1 [ruxolitinib, (R)-3-(4-(7H-pyrrolo[2,3-d]pyrimidin-4-yl)-1H-pyrazol-1-yl)-3-cyclopentylpropanenitrile] |  |  |  |  | confirmed
C[C@@H]1CCN(C(=O)CC#N)C[C@@H]1N(C)c1ncnc2[nH]ccc12 [tofacitinib, 3-{(3R,4R)-4-methyl-3-[methyl-(7H-pyrrolo[2,3-d]pyrimidin-4-yl)-amino]-piperidin-1-yl}-3-oxo-propionitrile] |  |  |  |  | confirmed

From patent US20190060311A1, “COMPOSITIONS AND METHODS FOR TREATMENT OF VITILIGO” (ACLARIS THERAPEUTICS, INC., priority 2017, published 2019)
